Experimental data published in patent publication US9125930B2, “EGFR aptamer inhibitor for use in therapy and diagnosis” (CONSIGLIO NAZIONALE DELLE RICERCHE, priority 2010, dated 2015).

Key:
[1] = tested on: A549 cells; experiment: Cell viability assay, A549 cells; format: cell-based, human; conditions: dose-dependent experiments, 0.1-10 μM
Method: Cell viability was assessed with CellTiter 96® AQueous One Solution Cell Proliferation Assay (Promega, Madison, Wis.) according to according to the supplier's instructions. […] The optical density (OD) was measured using a Multilabel Counter (Bio-Rad) at a wavelength of 490 nm and cell viability was calculated by the following formula: Cell viability (%)=(OD treated cells/OD control cells)×100%. FACS Analysis

[2] = biological target: EGFR (Homo sapiens, UniProt P00533); experiment: Immunoblot of EGF-dependent EGFR phosphorylation in A549 cells; format: cell-based; parameters: endogenous in cells; host or cells: A549; conditions: 200 nM aptamer, following 5 min of EGFR stimulation
Method: […] The aptamers were subjected to a short denaturation-renaturation step (85° C. for 5 min, snap-cooled on ice for 2 min, and allowed to warm up to 37° C.) before each treatment. To prepare cell extracts, cells were washed twice in ice-cold PBS, and lysed in buffer A (50 mM Tris-HCl pH 8.0 buffer containing 150 mM NaCl, 1% Nonidet P-40, 2 mg/ml aprotinin, 1 mg/ml pepstatin, 2 mg/ml leupeptin, 1 mM Na3VO4). Protein concentration was determined by the Bradford assay using bovine serum albumin as the standard. The cell lysates were subjected to SDS-PAGE. Gels were electroblotted into polyvinylidene difluoride membranes (Millipore Co., Bedford, Mass.), and filters were probed with the indicated primary antibodies: anti-EGFR and anti-phospho-EGFR (Tyr1062), anti-phospho-44/42 MAP kinase (E10) (also indicated as p-Erk), anti-phospho-Akt, anti-Akt and anti-phospho-STAT3 (Tyr705), anti-ErbB2 (all from Cell Signaling, Beverly, Mass., United States); anti-Erk1, anti-EGFR, anti-ErbB3, anti-ErbB4 (C-16) (Santa Cruz Biotechnology, California, United States); anti-α-αtubulin (DM 1A) (Sigma, St. Louis, Mo.).
Proteins were visualized with peroxidase-conjugated secondary antibodies using the enhanced chemiluminescence system (GE Healthcare Bio-Sciences, Uppsala, Sweden). […]

[3] = tested on: A431 tumors; experiment: Tumor growth in A431 mouse xenograft; format: in vivo; conditions: 200 pmoles intratumoral, three times a week for two weeks
Method: Athymic nude mice (nu/nu) were maintained in a sterile environment according to guidelines for Animal Care. Mice were inoculated with either 3×10^6 (in 100 μl) in vitro propagated A431 cells subcutaneously injected into each flank. Approximately 24 non-necrotic tumors for each tumor type, of about 1 cm in diameter, were randomly divided into three groups of eight mice per treatment group as follows: group 1, no treatment; group 2, treated with scrambled RNA as a negative control (200 pmols/injection); group 3, treated with CL4 42-81 (200 pmols/injection). Compounds were injected intra-tumorally in 100-1 μl volumes three times a week for two weeks. Day 0 marks the first day of injection. The aptamers may also be administered systemically, in particular when optimized by addition of polyethylene glycol (PEG).
The volume injections are small enough to preclude the compounds being forced inside the cells due to a nonspecific high-pressure injection. Tumors were measured every 3 days with calipers in three dimensions. The following formula was used to calculate tumor volume: VT=(W×L×H)×0.5236 (W, the shortest dimension; L, the longest dimension; H, the intermediate dimension). The growth curves are plotted as the means tumor volume±s.e.m. Statistical analysis of tumor size data was conducted using a one-way ANOVA. A P-value of 0.05 or less was considered to indicate a significant difference. […]

[4] = tested on: A549 cells; experiment: Apoptosis assay by PI staining and FACS; format: cell-based, human; parameters: dose or concentration left out as unconfirmed; conditions: A549, 24 hs or 48 hs
Method: For apoptosis assay, DNA content analysis was performed by staining with propidium iodide (PI) and analyzing cells by flow cytometry (FACS).
[…] Cells were incubated with 2 μg/ml propidium iodide (PI, Sigma, St. Louis, Mo.) for 30 min at 4° C. and recovered. The relative proportion of cells with DNA content indicative of apoptosis (ipoploid) was determined by FACS.

[5] = tested on: A549 cells; experiment: Binding of [32P]-labeled aptamer on A549 cells; parameters: species or system human; conditions: binding to A549 target cells
Method: Binding experiments were performed with 5′-[^32P]-labeled RNA. For labeling 2′-F-Py RNAs were 5′-end dephosphorylated using bacterial alcaline phosphatase (Invitrogen, Carlsbad, Calif.) before [^32P]-5′-end-labeled using T4 kinase (Invitrogen) and γ-[^32P]-ATP (6×10^3 Ci/mmol, GE Healthcare Bio-Sciences, Uppsala, Sweden) according to the supplier's instructions.
For binding experiments on cells, 3.5×10^4 cells were plated in 24-well plates in triplicate and were incubated with CL4 42-81 aptamer the scrambled sequence used as a negative control at 100 nM concentration in 200 μl of DMEM serum free for 20 min at RT in the presence of 100 μg/ml polyinosine as a nonspecific competitor (Sigma, St. Louis, Mo.). After five washings with 500 μl DMEM, bound sequences were recovered in 300 μl of SDS 1%, and the amount of radioactivity recovered was counted.

COc1cc2ncnc(Nc3ccc(F)c(Cl)c3)c2cc1OCCCN1CCOCC1 [gefitinib, reference compound]
sensitivity of A549 cell viability [1]: resistant

scrambled aptamer: scrambled aptamer used as negative control: 5′ UUCGUACCGGGUAGGUUGGCUUGCACAUAGAACGUGUCA 3′ (SEQ ID NO: 2) (listed as RNA, chemistry not given here) [reference compound]
inhibition of EGF-dependent phosphorylation of EGFR [2]: No effect
tumor volume [3]: not observed
effect on percentage of apoptotic cells [4]: No effect

B1: CL4: entire 92 nt aptamer generated by differential cell-SELEX on A549 cells (SEQ ID NO: 4), parent of CL4 42-81 (nucleic acid)
chain: GGGAGACAAGAAUAAACGCUCAACGACACGUUGCCAGCCGGAGCCUUAGUAACGUGCUUUGAUGUCGAUUCGACAGGAGGCUCACAACAGGC
modifications: listed as RNA, chemistry not given here
Kd [5]: 46 nM
